Patent publication US10677782B2, “Methods of determining interferon having direct inhibitory effects on tumors and uses thereof” (SUPERLAB FAR EAST LIMITED, priority 2013, dated 2020)

Assays:
human hepatoma SMMC-7721 = assay: Human hepatoma SMMC-7721 xenografts in nude mice (Example 1); assay type: in vivo; conditions: 5 mg/kg i.v.
Protocol: The test article was used without dilution. It was stored at 4° C. until thawed for injection.
The animals used were 4-6 weeks old male BALB/cA nu/nu mice, weighing about 23±2 g, obtained from the Shanghai Institute of Materia Medica (Shanghai, P.R. China). The study protocol was reviewed by the Committee on the Use and Care of Animals of Shanghai Institute of Materia Medica for compliance with regulations, and Committee approval was obtained prior to study initiation. Wherever possible, procedures used in this study were designed to avoid or minimize discomfort, distress, and pain to the animals. Animals that experience severe or chronic pain or distress that could not be relieved were painlessly euthanized, in accordance to regulations. Animals were housed 6 to a cage. They were ear-marked with ear hole punch identification. The room temperature was maintained at 25° C.±1° C. Lighting was set at 12 hr on and 12 hr off. Food was provided ad libitum. City tap water, filtered with a 5 micrometer (μm) filter, was provided to the animals ad libitum via water bottles. Neither the Study Director nor Huiyang Life Science and Technology Corp. was aware of any contaminant in the food or water that would interfere with or influence the intent and purpose of this study.
The test article (rSIFN-co) and the vehicle control were each administered intratumorally (i.t.). The test article was administered in a volume of 0.05 ml-0.15 ml per mouse per treatment, depending on the group to which the animal was assigned. […] Normal saline was injected in a volume of 0.15 ml per mouse, which was used as vehicle control.
Animals were assigned to treatment groups randomly. Initially, all animals were placed in one large animal cage. For assignment to the study, they were later separately housed, with 6 animals per cage per treatment group. Groups 1 and 2 are Control groups in which the animals were each administered the vehicle every other day after the first treatment. […] The animals in Groups 4, 5 and 6 were each given rSIFN-co every other day after the first treatment at 0.15 mg/mouse (Group 4) or 0.10 mg/mouse (Group 5) or 0.05 mg/mouse (Group 6), respectively. Tumor growth was monitored by measuring the length and width of each tumor twice a week during the course of the study. Each animal was also weighed twice a week during the course of the study.
(§1) Before commencement of this study, the xenografts were passaged twice in nude mice. Under sterile conditions, well-grown tumors were cut into 1.5 mm^3 fragments and one such fragment was injected by trocar needle into the right flank of each study animal. […] Individual tumor size (length and width) was measured twice per week with microcalipers. Tumor volume (V) was calculated using the formula: V=(length×width^2)/2. Individual relative tumor volume (RTV) was calculated using the formula: RTV=Vt/V0, where Vt is the tumor volume on the day of measurement and V0 is the tumor volume on the day of first treatment. Therapeutic effect of the test article or control article was expressed in terms of TIC (%), using the formula: TIC (%) (mean RTV of the treated group/mean RTV of the control group)×100%; and in terms of % Inhibition, using the formula: % Inhibition=100%−T/C %.

[1] = test system: Human Cervical Cancer Hela Xenografts; assay: Human cervical cancer Hela xenografts in nude mice (Example 2); assay type: in vivo; conditions: 5 mg/kg i.v.
Protocol: as §1
Then 1.5 mm^3 fragments were prepared for s.c. implantation into the animals.

[2] = test system: Human Colon Cancer HT-29 Xenografts; assay: Human colon cancer HT-29 xenografts in nude mice (Example 3); assay type: in vivo; conditions: 5 mg/kg i.v.
Protocol: as §1
Then, 1.5 mm^3 fragments were prepared for s.c. implantation into the test animals.

[3] = test system: human lung cancer SPC-A4 xenografts; assay: Human lung cancer SPC-A4 xenografts in nude mice (Example 4); assay type: in vivo; conditions: 5 mg/kg i.v.
Protocol: as §1
The 1.5 mm^3 fragments were then used for s.c. implantation into the test animals.

[4] = test system: procaspase-3, cleaved caspase-3, procaspase-8, cleaved caspase-8, PARP in A549 cells; assay: Apoptosis-related molecular markers by Western Blot; assay type: cell-based, human; conditions: 24 hr or 48 hr; interferons at 10 mcg/ml
Source text: (§2) Thereafter, apoptosis-related molecular markers were monitored by Western Blot. The primary antibodies used were mouse monoclonal anti-beta-tubulin (1:2000, Cat #: CW0098A) and mouse monoclonal anti-GAPDH (1:2000, Cat #: CW0100A) (Kangwei Biotechnology, China); mouse monoclonal anti-PARP (1:1000, Cat #: se-2007, Santa Cruz Biotechnology, Inc.); rabbit monoclonal anti-procaspase 3 (1:1000, Cat #: 9665), and rabbit polyclonal anti-cleaved caspase 3 (1:1000, Cat #: 9661) (Cell Signaling Technology, USA); goat polyclonal anti-procaspase 8 (1:1000, Cat #: sc-6136, Santa Cruz Biotechnology, Inc); rabbit monoclonal anti-cleaved caspase 8 (1:1000, Cat #: 9496) (Cell Signaling Technology, USA).

[5] = test system: procaspase-3, cleaved caspase-3, procaspase-8, cleaved caspase-8, PARP in SW620 cells; assay: as above; assay type: cell-based, human; conditions: 24 hr or 48 hr; interferons at 10 mcg/ml
Source text: as §2

## CO[C@@]12[C@H](COC(N)=O)C3=C(C(=O)C(C)=C(N)C3=O)N1C[C@@H]1N[C@@H]12 [MMC, Mitomycin C, reference compound]
Human hepatoma SMMC-7721; day 0, start of treatment
  TV (mm^3, mean ± SD) (D0): 125 ± 35 mm^3
Human hepatoma SMMC-7721; day 21
  TV (mm^3, mean ± SD) (D21): 621 ± 247 mm^3
[1]; day 0, start of treatment
  TV (mm^3, mean ± SD) (D0): 130 ± 28 mm^3
[1]; day 28
  TV (mm^3, mean ± SD) (D28): 676 ± 358 mm^3
[2]; day 0, start of treatment
  TV (mm^3, mean ± SD) (D0): 132 ± 22 mm^3
[2]; day 28
  TV (mm^3, mean ± SD) (D28): 395 ± 95 mm^3
[3]; day 0, start of treatment
  TV (mm^3, mean ± SD) (D0): 166 ± 42 mm^3
[3]; day 21
  TV (mm^3, mean ± SD) (D21): 1831 ± 540 mm^3

## O=c1[nH]cc(F)c(=O)[nH]1 [5FU, reference compound]
[4]
  level of apoptosis-related molecular markers (procaspase-3, procaspase-8, PARP, cleaved caspase-3, cleaved caspase-8): significant reduction of in the level of procaspase-3, procaspase-8 and PARP, but exhibited an enhanced level of cleaved caspase-3 and cleaved caspase-8
[5]
  level of apoptosis-related molecular markers (procaspase-3, procaspase-8, PARP, cleaved caspase-3, cleaved caspase-8): significant reduction of in the level of procaspase-3, procaspase-8 and PARP, but exhibited an enhanced level of cleaved caspase-3 and cleaved caspase-8
